Among the data in patent US20240262804A1, “NITROGEN-CONTAINING HETEROCYCLIC KETONES, PREPARATION METHODS AND MEDICINAL USES THEREOF” (Hansoh Bio LLC, priority 2021, published 2024) are IC50 values, retold here.

bovine cardiac myosin, sequence (Q9BE39 whole entry): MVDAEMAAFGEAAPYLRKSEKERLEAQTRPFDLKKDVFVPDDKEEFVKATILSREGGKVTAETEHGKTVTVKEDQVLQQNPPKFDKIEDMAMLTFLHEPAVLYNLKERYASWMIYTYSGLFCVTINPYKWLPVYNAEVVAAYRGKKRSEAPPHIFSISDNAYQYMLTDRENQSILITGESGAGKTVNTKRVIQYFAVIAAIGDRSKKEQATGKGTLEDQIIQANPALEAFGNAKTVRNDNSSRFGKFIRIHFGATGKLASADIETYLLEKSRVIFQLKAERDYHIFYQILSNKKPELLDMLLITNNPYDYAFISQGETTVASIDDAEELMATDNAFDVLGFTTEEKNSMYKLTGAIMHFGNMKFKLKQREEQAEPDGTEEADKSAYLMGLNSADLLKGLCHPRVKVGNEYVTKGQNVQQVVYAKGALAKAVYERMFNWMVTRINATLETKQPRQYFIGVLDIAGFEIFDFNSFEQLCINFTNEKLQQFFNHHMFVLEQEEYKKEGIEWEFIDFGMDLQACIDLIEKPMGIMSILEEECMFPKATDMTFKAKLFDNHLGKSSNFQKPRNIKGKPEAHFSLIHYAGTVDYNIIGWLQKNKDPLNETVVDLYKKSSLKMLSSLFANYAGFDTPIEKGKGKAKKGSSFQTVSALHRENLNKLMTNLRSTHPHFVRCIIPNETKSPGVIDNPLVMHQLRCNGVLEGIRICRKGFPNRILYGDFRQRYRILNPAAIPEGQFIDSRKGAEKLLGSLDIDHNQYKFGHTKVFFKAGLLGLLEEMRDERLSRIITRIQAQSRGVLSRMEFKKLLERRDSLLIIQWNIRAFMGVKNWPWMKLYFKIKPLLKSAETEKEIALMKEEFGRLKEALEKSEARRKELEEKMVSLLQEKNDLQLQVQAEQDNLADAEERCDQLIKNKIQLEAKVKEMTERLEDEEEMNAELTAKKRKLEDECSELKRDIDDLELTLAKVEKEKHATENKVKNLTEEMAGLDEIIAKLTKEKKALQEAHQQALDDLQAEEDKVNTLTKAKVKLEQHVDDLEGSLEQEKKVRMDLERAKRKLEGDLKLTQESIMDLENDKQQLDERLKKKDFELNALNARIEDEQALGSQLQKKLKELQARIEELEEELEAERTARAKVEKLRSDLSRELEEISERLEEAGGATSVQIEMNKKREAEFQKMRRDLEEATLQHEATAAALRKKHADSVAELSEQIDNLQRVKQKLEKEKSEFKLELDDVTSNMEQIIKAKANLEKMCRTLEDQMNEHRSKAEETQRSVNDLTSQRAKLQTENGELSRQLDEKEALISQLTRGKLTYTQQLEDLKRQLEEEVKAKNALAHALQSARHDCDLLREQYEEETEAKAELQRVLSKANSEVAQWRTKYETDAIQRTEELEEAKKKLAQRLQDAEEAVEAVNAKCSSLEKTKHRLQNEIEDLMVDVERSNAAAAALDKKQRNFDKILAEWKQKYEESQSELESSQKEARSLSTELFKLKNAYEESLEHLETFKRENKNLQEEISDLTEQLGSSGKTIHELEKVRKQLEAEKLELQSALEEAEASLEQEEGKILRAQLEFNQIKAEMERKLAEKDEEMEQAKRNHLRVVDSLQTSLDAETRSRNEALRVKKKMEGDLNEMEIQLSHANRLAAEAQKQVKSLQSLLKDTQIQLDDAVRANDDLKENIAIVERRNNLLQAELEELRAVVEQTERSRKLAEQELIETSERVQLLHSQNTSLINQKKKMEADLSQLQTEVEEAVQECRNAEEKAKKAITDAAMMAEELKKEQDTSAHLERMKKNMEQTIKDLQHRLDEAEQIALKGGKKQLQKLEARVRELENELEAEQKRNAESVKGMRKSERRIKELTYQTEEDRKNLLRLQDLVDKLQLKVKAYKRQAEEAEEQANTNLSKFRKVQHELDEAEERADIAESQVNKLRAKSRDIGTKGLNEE
bovine cardiac myosin, sequence (P85100 whole entry partner): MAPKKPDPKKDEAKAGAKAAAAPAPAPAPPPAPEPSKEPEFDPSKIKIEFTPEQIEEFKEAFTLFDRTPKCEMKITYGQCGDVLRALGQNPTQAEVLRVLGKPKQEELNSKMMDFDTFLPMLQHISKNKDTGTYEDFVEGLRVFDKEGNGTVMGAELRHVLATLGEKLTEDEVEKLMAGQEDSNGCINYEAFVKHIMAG
bovine cardiac myosin, sequence (Q3SZE5 whole entry partner): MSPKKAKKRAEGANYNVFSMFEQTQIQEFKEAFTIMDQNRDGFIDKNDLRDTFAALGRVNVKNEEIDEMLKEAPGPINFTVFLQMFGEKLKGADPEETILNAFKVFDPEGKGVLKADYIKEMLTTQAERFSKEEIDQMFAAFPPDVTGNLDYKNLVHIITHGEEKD

The assay concerns the target bovine cardiac myosin (Bos taurus (Bovine), UniProt Q9BE39). The assay can be described thus: Myosin inhibitory potency: PK/LDH-coupled ATPase assay on bovine skinned cardiac myofibrils. The assay is classed as biochemical. Particulars: pCa=6.25, 50 μM ATP, 25° C., read-out: myosin inhibition activity IC50. How it is done:
The average rates of ATPase inhibition, and the IC50 values are determined by Victor Nivo multimode plate reader (PerkinElmer, USA).
As to the assays background, a biochemical assay couples the ATPase activity of bovine cardiac myosin to an enzymatic coupling system consisting of pyruvate kinase and lactate dehydrogenase (PK/LDH) and monitoring the absorbance decrease of NADH (at 340 nm) as a function of time to measure the inhibitory ability of small molecule agents. In the assay, PK converts ADP (Adenosine diphosphate) to ATP (adenosine triphosphate) by converting PEP (phosphoenolpyruvate) to pyruvate. Pyruvate is then converted to lactate by LDH by converting NADH (nicotinamide adenine dinucleotide) to NAD (oxidized nicotinamide adenine dinucleotide).
In our experiments, bovine skinned cardiac myofibrils were isolated from the frozen bovine left ventricle as myosin's source in the ATPase assay. The calcium concentration that achieves a 50% (pCa50 or pCa=6.25) activation of the myofibril system was chosen as the final condition for assessing the activation activity according to the literature (DOI: 10.1074/jbc.M117.776815). Myofibrils ATPase activity was measured in a buffered solution containing 12 mM PIPES (piperazine-N, N′-bis(2-ethane sulfonic acid) and 2 mM magnesium chloride at pH 6.8 (PM12 buffer). Final assay conditions were 1 mg/mL of bovine cardiac myofibrils, 1:20 of stock PK/LDH (Sigma-Aldrich, Cat No. P0294-5X5ML), 50 μM ATP, 1 mM DTT (dithiothreitol), 0.75 mM NADH, 1.5 mM PEP at pCa50 (pCa=6.25). Compounds were dissolved in DMSO (dimethyl sulfoxide). Serial dilution of compounds was created such that the final desired concentration of compound would be achieved in a volume of 150 μL with a fixed DMSO concentration of 2% (v/v). 75 μL of a solution containing bovine cardiac myofibrils, PK/LDH, and calcium were added to a 96 well plate for a 7 point dose-response. In some circumstances, 10 point-response was used to repeat the ATPase assays on compounds of interest. Compounds were added to the myofibrils solution and incubated for 5 minutes. The enzymatic reaction was started with the addition of 75 μL of a solution containing ATP, PEP, NADH, compounds, and calcium. The ATPase activity was measured by reading absorbance at 340 nm in a PerkinElmer Victor Nivo plate reader at 25° C. in kinetic mode for 15 minutes using clear bottom plates. The slopes of the absorbance changes as a function of time for the first 10 minutes were normalized to slopes on the control wells containing all reagents, including DMSO, but without compounds. This normalized rate was then plotted as a function of small molecule concentration in GraphPad prism 9. The data were fitted to a four-parameter fit, and IC50 was calculated using Graphpad Prism 9.
For the molecule `C[C@H](Nc1nc(=O)n(C2CCOCC2)c(=O)[nH]1)C1CCCCC1` [Example 2], the IC50 was 2.45 µM.

For `CC(C)n1c(=O)nc(N[C@@H](C)c2ccccc2)[nH]c1=O` [Example 3], the IC50 was found to be 7.05 µM.

Regarding `C[C@H](Nc1nc(=O)n(C2CCOCC2)c(=O)[nH]1)c1cccc(Cl)c1F` [Example 11], the IC50 came out at 1.37 µM.

Turning to `C[C@H](Nc1nc(=O)n(C2CCOCC2)c(=O)[nH]1)c1c(F)cccc1F` [Example 12], the half-inhibitory concentration (IC50) was determined as 2.14 µM.

`C[C@H](Nc1nc(=O)n(C2CCOCC2)c(=O)[nH]1)c1c(F)cccc1Cl` [Example 13]: the IC50 worked out at 1.3 µM.

Regarding `C[C@H](Nc1nc(=O)n([C@@H](C)C(F)(F)F)c(=O)[nH]1)C1CCCCC1` [Example 14], the IC50 stood at 1.17 µM.

Consider `C[C@H](Nc1nc(=O)n([C@H](C)C(F)(F)F)c(=O)[nH]1)C1CCCCC1` [Example 15], for which the IC50 was 2.16 µM.

`C[C@H](Nc1nc(=O)n(CC(F)(F)F)c(=O)[nH]1)C1CCCCC1` [Example 16]: the IC50 was 0.69 µM.

`C[C@H](Nc1nc(=O)n(C(C2CC2)C(F)(F)F)c(=O)[nH]1)C1CCCCC1` (stereo partly drawn) [Example 18]: the IC50 stood at 0.48 µM.

With `C[C@H](Nc1nc(=O)n(C2CCNC(=O)C2)c(=O)[nH]1)C1CCCCC1` (stereo partly drawn) [Example 22], the IC50 amounted to 13.2 µM.

As to `C[C@H](Nc1nc(=O)n(C2CCN(C)C(=O)C2)c(=O)[nH]1)C1CCCCC1` (stereo partly drawn) [Example 23], the IC50 was found to be 8.05 µM.

With `C[C@H](Nc1nc(=O)n(-c2cccnc2)c(=O)[nH]1)C1CCCCC1` [Example 24], the IC50 turned out to be 9.14 µM.

In the case of `CC(C)N1CCC(n2c(=O)nc(N[C@@H](C)C3CCCCC3)[nH]c2=O)CC1` [Example 31], the IC50 was 5.91 µM.

With `C[C@H](Nc1nc(=O)n(C2CCN(C3CC3)CC2)c(=O)[nH]1)C1CCCCC1` [Example 32], the half-maximal inhibitory concentration (IC50) stood at 3.04 µM.

Consider `COCCN1CCC(n2c(=O)nc(N[C@@H](C)C3CCCCC3)[nH]c2=O)CC1` [Example 33], for which the half-maximal inhibitory concentration (IC50) amounted to 3.86 µM.

Turning to `Cc1cccc([C@H](C)Nc2nc(=O)n(C3CCCOC3)c(=O)[nH]2)c1` (stereo partly drawn) [Example 35], the IC50 came to 2.59 µM.

As for `Cc1cccc([C@H](C)Nc2nc(=O)n(C3CCN(C(C)C)CC3)c(=O)[nH]2)c1` [Example 37], the concentration for half-maximal inhibition (IC50) was 1.29 µM.

For `COCCN1CCC(n2c(=O)nc(N[C@@H](C)c3cccc(C)c3)[nH]c2=O)CC1` [Example 38], the half-inhibitory concentration (IC50) is 1.45 µM.

For `Cc1cccc([C@H](C)Nc2nc(=O)n(C3CCN(CC(F)(F)F)CC3)c(=O)[nH]2)c1` [Example 39], the concentration for half-maximal inhibition (IC50) was found to be 6.7 µM.

`Cc1cccc([C@H](C)Nc2nc(=O)n([C@@H](C)C(F)(F)F)c(=O)[nH]2)c1` [Example 40]: the 50% inhibitory concentration (IC50) turned out to be 2.21 µM.

With `Cc1cccc([C@H](C)Nc2nc(=O)n([C@H](C)C(F)(F)F)c(=O)[nH]2)c1` [Example 41], the IC50 worked out at 2.19 µM.

As for `Cc1cccc([C@H](C)Nc2nc(=O)n(CC(F)(F)F)c(=O)[nH]2)c1` [Example 42], the IC50 is 9.1 µM.

Turning to `CC(C)Oc1ccc([C@H](C)Nc2nc(=O)n(C3CCOCC3)c(=O)[nH]2)cc1` [Example 43], the IC50 was 1.08 µM.

On to `C[C@H](Nc1nc(=O)n(C2CCOCC2)c(=O)[nH]1)c1ccccc1` [Example 46], for which the IC50 was found to be 3.9 µM.

With `COc1ccc([C@H](C)Nc2nc(=O)n(C3CCOCC3)c(=O)[nH]2)cc1` [Example 48], the 50% inhibitory concentration (IC50) was 1.13 µM.

With `CC(Nc1nc(=O)n(C(C)C)c(=O)[nH]1)c1ccccc1O` (stereo not drawn) [Example 51], the half-maximal inhibitory concentration (IC50) amounted to 11.1 µM.

`CC(n1c(=O)nc(N[C@@H](C)C2CCCCC2)[nH]c1=O)C(F)(F)F` (stereo partly drawn) [Example 52]: the concentration for half-maximal inhibition (IC50) was found to be 6.14 µM.

Consider `C[C@H](Nc1nc(=O)n(C2(C(F)(F)F)CC2)c(=O)[nH]1)C1CCCCC1` [Example 54], for which the concentration for half-maximal inhibition (IC50) came out at 4.52 µM.

For `C[C@H](Nc1nc(=O)n(C2CCC(F)(F)CC2)c(=O)[nH]1)C1CCCCC1` [Example 55], the half-inhibitory concentration (IC50) was determined as 4.63 µM.

`Cc1cc(C)cc([C@H](C)Nc2nc(=O)n(C3CCOCC3)c(=O)[nH]2)c1` [Example 56]: the half-inhibitory concentration (IC50) was 1.49 µM.

As to `C[C@H](Nc1nc(=O)n(-c2ccccn2)c(=O)[nH]1)C1CCCCC1` [Example 57], the half-inhibitory concentration (IC50) amounted to 7.4 µM.

In the case of `C[C@H](Nc1nc(=O)n(C2CCN(C)CC2)c(=O)[nH]1)C1CCCCC1` [Example 59], the half-maximal inhibitory concentration (IC50) came out at 2.59 µM.

As for `C[C@H](Nc1nc(=O)n(C2CCCCC2)c(=O)[nH]1)C1CCCCC1` [Example 60], the IC50 was 7.41 µM.

In the case of `CC(C)n1c(=O)nc(NCCC2CCCCC2)[nH]c1=O` [Example 65], the IC50 is 4.23 µM.

Consider `CC(Nc1nc(=O)n(C(C)C)c(=O)[nH]1)C1CCC(F)(F)CC1` (stereo not drawn) [Example 66], for which the IC50 was found to be 10.2 µM.

With `CC(C)n1c(=O)nc(NC(C2CCCCC2)C2CC2)[nH]c1=O` (stereo not drawn) [Example 69], the IC50 turned out to be 8.43 µM.

For `CC[C@H](Nc1nc(=O)n(C(C)C)c(=O)[nH]1)C1CCCCC1` [Example 70], the IC50 amounted to 5.28 µM.

As to `O=c1nc(NC(C2CCCCC2)C(F)(F)F)[nH]c(=O)n1C1CCOCC1` (stereo not drawn) [Example 75], the concentration for half-maximal inhibition (IC50) was determined as 6.12 µM.

Regarding `C[C@H](Nc1nc(=O)n(C2CCCC2)c(=O)[nH]1)C1CCCCC1` [Example 78], the IC50 worked out at 4.89 µM.

Regarding `CO[C@H]1CC[C@@H](n2c(=O)nc(N[C@@H](C)C3CCCCC3)[nH]c2=O)CC1` [Example 84], the 50% inhibitory concentration (IC50) came out at 5.77 µM.

Take `C[C@H](Nc1nc(=O)n([C@H]2CC[C@@H](F)CC2)c(=O)[nH]1)C1CCCCC1` [Example 86]: the IC50 turned out to be 1.83 µM.

For `C[C@H](Nc1nc(=O)n([C@H]2CC[C@H](F)CC2)c(=O)[nH]1)C1CCCCC1` [Example 87], the IC50 was 0.45 µM.

In the case of `C[C@H](Nc1nc(=O)n(C2(C)CCC2)c(=O)[nH]1)C1CCCCC1` [Example 89], the concentration for half-maximal inhibition (IC50) is 8.64 µM.

On to `C[C@H](Nc1nc(=O)n(C2(C)CCCC2)c(=O)[nH]1)C1CCCCC1` [Example 90], for which the IC50 stood at 8.72 µM.

Consider `Cc1cccc([C@H](C)Nc2nc(=O)n(C3CCn4nccc4C3)c(=O)[nH]2)c1` (stereo partly drawn) [Example 92], for which the half-inhibitory concentration (IC50) amounted to 7.47 µM.

For the molecule `Cc1cccc([C@H](C)Nc2nc(=O)n(C3CCCCC3)c(=O)[nH]2)c1` [Example 93], the IC50 worked out at 8.03 µM.

For `Cc1cccc([C@H](C)Nc2nc(=O)n(C3CCCC3)c(=O)[nH]2)c1` [Example 94], the IC50 was found to be 1.75 µM.

`Cc1cccc([C@H](C)Nc2nc(=O)n(C3CCOC3)c(=O)[nH]2)c1` (stereo partly drawn) [Example 95]: the half-maximal inhibitory concentration (IC50) came out at 7.32 µM.

Turning to `Cc1cccc([C@H](C)Nc2nc(=O)n([C@H]3CC[C@@H](NC(=O)OC(C)(C)C)CC3)c(=O)[nH]2)c1` [Example 96], the IC50 is 4.58 µM.

For `Cc1cccc([C@H](C)Nc2nc(=O)n([C@H]3CC[C@H](NC(=O)OC(C)(C)C)CC3)c(=O)[nH]2)c1` [Example 97], the half-inhibitory concentration (IC50) stood at 1.29 µM.

`Cc1cccc([C@H](C)Nc2nc(=O)n(C3CCOCC3(C)C)c(=O)[nH]2)c1` (stereo partly drawn) [Example 99]: the concentration for half-maximal inhibition (IC50) was 9.35 µM.

For `Cc1cccc([C@H](C)Nc2nc(=O)n(C3CCOC(C)C3)c(=O)[nH]2)c1` (stereo partly drawn) [Example 100], the 50% inhibitory concentration (IC50) amounted to 5.41 µM.

For `CC(Nc1nc(=O)n(C2CCOCC2)c(=O)[nH]1)c1ccccc1O` (stereo not drawn) [Example 101], the concentration for half-maximal inhibition (IC50) was 10.6 µM.

As for `CC(Nc1nc(=O)n(C2CCOCC2)c(=O)[nH]1)c1ccc(O)cc1` (stereo not drawn) [Example 103], the IC50 was found to be 14.1 µM.

Take `CC(Nc1nc(=O)n(C2CCOCC2)c(=O)[nH]1)C1CCCCCC1` (stereo not drawn) [Example 109]: the IC50 was found to be 4.58 µM.

Turning to `CC(Nc1nc(=O)n(C2CCOCC2)c(=O)[nH]1)C1CC2(CCC2)C1` (stereo not drawn) [Example 110], the IC50 was 9 µM.

Take `O=c1nc(NCCC2CCCCC2)[nH]c(=O)n1C1CCOCC1` [Example 114]: the half-maximal inhibitory concentration (IC50) came out at 14.2 µM.

Consider `CC[C@H](Nc1nc(=O)n(C2CCOCC2)c(=O)[nH]1)C1CCCCC1` [Example 116], for which the IC50 stood at 3.95 µM.

On to `CC(Nc1nc(=O)n(C2CCOCC2)c(=O)[nH]1)C1CCC(F)(F)CC1` (stereo not drawn) [Example 118], for which the IC50 came out at 13 µM.

Consider `CC(Nc1nc(=O)n(C2CCOCC2)c(=O)[nH]1)c1ccccc1Br` (stereo not drawn) [Example 119], for which the concentration for half-maximal inhibition (IC50) is 3.4 µM.

Turning to `CC(Nc1nc(=O)n(C2CCOCC2)c(=O)[nH]1)c1cccc(Br)c1` (stereo not drawn) [Example 120], the 50% inhibitory concentration (IC50) turned out to be 1.58 µM.

Consider `CC(Nc1nc(=O)n(C2CCOCC2)c(=O)[nH]1)c1ccccc1F` (stereo not drawn) [Example 121], for which the IC50 was determined as 2.62 µM.

`CC(Nc1nc(=O)n(C2CCOCC2)c(=O)[nH]1)c1cccc(F)c1` (stereo not drawn) [Example 122]: the half-inhibitory concentration (IC50) turned out to be 3.48 µM.
